US20230106943A1, “ENGINEERED ANTIMICROBIAL PEPTIDES AND USAGE THEREOF” (Peptilogics, Inc., priority 2021, published 2023)
No end group written: not given here.

Key:
[1] = Example 7 stability of 1 mg/mL SEQ ID NO: 1 solutions at pH 4-7, HPLC % area over storage; type: physicochemical
Description: SEQ ID NO: 1 was dissolved in sterile water for injection resulting solutions at a concentration of 1 mg/mL and pH adjusting agents were added to achieve a pH value in the range of 4-7. The pH adjusting chosen were acetate and sodium hydroxide and citric acid (for pH 4). Each of the solutions were filtered through a 0.45 um filter and samples were stored in 1 mL aliquots at 40° C., room temperature (approximately 20° C.), refrigerated conditions (5° C.), and frozen at −20° C. Samples were withdrawn at regular intervals (t=0, and Days 2, 7, 14, and 28) and analyzed by HPLC to determine if chemical degradation of the peptide could be detected in any samples. Degradation rates between samples of each pH were also analyzed.

[2] = Stability of solid SEQ ID NO: 1 stored at −20° C. (HPLC area percent); type: physicochemical
Description: A solid form of SEQ ID NO: 1 from Batch 2K18005 was dissolved and assayed. FIG. 1 depict the chromatograph of SEQ ID NO:1 at 1.0 mg/mL. The retention time at 14.38 and relative retention time at 1.00 (RTT) corresponded to SEQ ID NO: 1. The area percent of the SEQ ID NO: 1 was 99.09. […] The area percent of the impurity was 0.91. FIG. 1 depicts SEQ ID NO: 1 at time (t)=0 for a baseline prior to storage. SEQ ID NO: 1 is stable after 3 years of storage at −20° C. as a dry powder in a glass vial. FIG. 2 depicts the HPLC chromatograph after 3 years of storage SEQ ID NO: 1 in solid form at −20° C. (Batch 2K18005). The retention time at 18.03 and relative retention time at 1.00 (RTT) corresponded to SEQ ID NO: 1. The area percent of the SEQ ID NO: 1 was 97.87.

[3] = Example 4 stability of concentrated solutions: UV-Vis Assay (method 78933); type: physicochemical
Description: (§1) The peptide formulation of SEQ ID NO: 1 dissolved in a saline solution with a pH of 5.0±0.1 was tested for stability under either −20° C. or 40° C. with 75% relative humidity (RH). […]

[4] = Example 4 stability of concentrated solutions: Osmolality (method 69153); type: physicochemical
Description: as §1

[5] = solid form, Batch 2K18005, t=0 baseline prior to storage
[6] = solid form, after 3 years at −20° C.
[7] = 15.3 mg/mL solution, 40° C. and 75% RH, 1 Month
[8] = 15.3 mg/mL solution, 40° C. and 75% RH, 2 Month
[9] = 15.3 mg/mL solution, 40° C. and 75% RH, 3 Month
[10] = 15.3 mg/mL solution, 40° C. and 75% RH, 6 Month
[11] = 15.3 mg/mL solution, −20° C., 0 Month
[12] = 15.3 mg/mL solution, −20° C., 1 Month
[13] = 15.3 mg/mL solution, −20° C., 2 Month
[14] = 15.3 mg/mL solution, −20° C., 3 Month
[15] = 15.3 mg/mL solution, −20° C., 6 Month
[16] = 15.3 mg/mL solution, −20° C., 9 Month
[17] = 36.7 mg/mL solution, 40° C. and 75% RH, 1 Month
[18] = 36.7 mg/mL solution, 40° C. and 75% RH, 2 Month
[19] = 36.7 mg/mL solution, 40° C. and 75% RH, 3 Month
[20] = 36.7 mg/mL solution, 40° C. and 75% RH, 6 Month
[21] = 36.7 mg/mL solution, −20° C., 0 Month
[22] = 36.7 mg/mL solution, −20° C., 1 Month
[23] = 36.7 mg/mL solution, −20° C., 2 Month
[24] = 36.7 mg/mL solution, −20° C., 3 Month
[25] = 36.7 mg/mL solution, −20° C., 6 Month
[26] = 36.7 mg/mL solution, −20° C., 9 Month
[27] = 72.4 mg/mL solution, 40° C. and 75% RH, 1 Month
[28] = 72.4 mg/mL solution, 40° C. and 75% RH, 2 Month
[29] = 72.4 mg/mL solution, 40° C. and 75% RH, 3 Month
[30] = 72.4 mg/mL solution, 40° C. and 75% RH, 6 Month
[31] = 72.4 mg/mL solution, −20° C., 0 Month
[32] = 72.4 mg/mL solution, −20° C., 1 Month
[33] = 72.4 mg/mL solution, −20° C., 2 Month
[34] = 72.4 mg/mL solution, −20° C., 3 Month
[35] = 72.4 mg/mL solution, −20° C., 6 Month
[36] = 72.4 mg/mL solution, −20° C., 9 Month
[37] = 81.4 mg/mL solution, −20° C., 0 Month

## RRWVRRVRRVWRRVVRVVRRWVRR-NH2 [SEQ ID NO: 1]
[1]; pH 4-7 samples, after 7 days of storage at 40° C.
  impurity change by HPLC % area: no significant evidence of impurity increase
[1]; pH 4 and pH 5 made with acetic acid
  overall stability as a function of pH: maximum stability
[1]; prepared at pH 4 with citrate, after 27 days of storage at 40° C.
  impurity change by HPLC % area: increase in impurities
[1]; prepared at pH 7, after 27 days of storage at 40° C.
  impurity change by HPLC % area: increase in impurities
other
  solubility: > 100 mg/mL
[2]; dry powder in a glass vial, 3 years at −20° C.
  stability on storage: stable
[2]; solid form, Batch 2K18005, after 3 years of storage at −20° C.
  area percent of the SEQ ID NO: 1 (HPLC): 97.87 area percent
[2]; [5]
  area percent of the SEQ ID NO: 1 (HPLC): 99.09 area percent
  area percent of the impurity, RTT 1.03: 0.91 area percent
[2]; [6]
  area percentage of impurity, RTT 0.99: 0.09 area percent
  area percentage of impurity, RTT 1.02: 1.28 area percent
  area percentage of impurity, RTT 1.03: 0.41 area percent
  area percentage of impurity, RTT 1.04: 0.19 area percent
  area percentage of impurity, RTT 1.05: 0.15 area percent
[3]; [7]
  UV-Vis Assay: 102.0%
[3]; [8]
  UV-Vis Assay: 102.2%
[3]; [9]
  UV-Vis Assay: 103.9%
[3]; [10]
  UV-Vis Assay: 102.5%
[3]; [11]
  UV-Vis Assay: 102.0%
[3]; [12]
  UV-Vis Assay: 101.5%
[3]; [13]
  UV-Vis Assay: 104.0%
[3]; [14]
  UV-Vis Assay: 105.1%
[3]; [15]
  UV-Vis Assay: 103.9%
[3]; [16]
  UV-Vis Assay: 103.1%
[3]; [17]
  UV-Vis Assay: 100.3%
[3]; [18]
  UV-Vis Assay: 101.3%
[3]; [19]
  UV-Vis Assay: 99.2%
[3]; [20]
  UV-Vis Assay: 100.1%
[3]; [21]
  UV-Vis Assay: 98.1%
[3]; [22]
  UV-Vis Assay: 100.0%
[3]; [23]
  UV-Vis Assay: 100.6%
[3]; [24]
  UV-Vis Assay: 101.7%
[3]; [25]
  UV-Vis Assay: 99.5%
[3]; [26]
  UV-Vis Assay: 100.3%
[3]; [27]
  UV-Vis Assay: 97.8%
[3]; [28]
  UV-Vis Assay: 98.6%
[3]; [29]
  UV-Vis Assay: 93.4%
[3]; [30]
  UV-Vis Assay: 95.4%
[3]; [31]
  UV-Vis Assay: 90.1%
[3]; [32]
  UV-Vis Assay: 97.6%
[3]; [33]
  UV-Vis Assay: 98.2%
[3]; [34]
  UV-Vis Assay: 94.5%
[3]; [35]
  UV-Vis Assay: 97.0%
[3]; [36]
  UV-Vis Assay: 99.0%
[3]; [37]
  UV-Vis Assay: 105.0 % LC
[4]; [7]
  Osmolality: Average Reading: 82 mOsmol/kg
[4]; [8]
  Osmolality: Average Reading: 83 mOsmol/kg
[4]; [9]
  Osmolality: Average Reading: 80 mOsmol/kg
[4]; [10]
  Osmolality: 85 mOsmol/kg
[4]; [11]
  Osmolality: Average Reading: 82 mOsmol/kg
[4]; [12]
  Osmolality: Average Reading: 82 mOsmol/kg
[4]; [13]
  Osmolality: Average Reading: 82 mOsmol/kg
[4]; [14]
  Osmolality: Average Reading: 82 mOsmol/kg
[4]; [15]
  Osmolality: 84 mOsmol/kg
[4]; [16]
  Osmolality: 83 mOsmol/kg
[4]; [17]
  Osmolality Average Reading: Average Reading: 188 mOsmol/kg
[4]; [18]
  Osmolality Average Reading: Average Reading: 189 mOsmol/kg
[4]; [19]
  Osmolality Average Reading: Average Reading: 191 mOsmol/kg
[4]; [20]
  Osmolality: 193 mOsmol/kg
[4]; [21]
  Osmolality: Average Reading: 190 mOsmol/kg
[4]; [22]
  Osmolality: Average Reading: 188 mOsmol/kg
[4]; [23]
  Osmolality: Average Reading: 190 mOsmol/kg
[4]; [24]
  Osmolality: Average Reading: 193 mOsmol/kg
[4]; [25]
  Osmolality: 190 mOsmol/kg
[4]; [26]
  Osmolality: 190 mOsmol/kg
[4]; [27]
  Osmolality Average Reading: Average Reading: 374 mOsmol/kg
[4]; [28]
  Osmolality Average Reading: Average Reading: 379 mOsmol/kg
[4]; [29]
  Osmolality Average Reading: Average Reading: 371 mOsmol/kg
[4]; [30]
  Osmolality: 194 mOsmol/kg
[4]; [31]
  Osmolality Average Reading: Average Reading: 371 mOsmol/kg
[4]; [32]
  Osmolality Average Reading: Average Reading: 374 mOsmol/kg
[4]; [33]
  Osmolality Average Reading: Average Reading: 376 mOsmol/kg
[4]; [34]
  Osmolality Average Reading: Average Reading: 374 mOsmol/kg
[4]; [35]
  Osmolality: 195 mOsmol/kg
[4]; [36]
  Osmolality: 375 mOsmol/kg
[4]; 81.4 mg/mL solution, 40° C. and 75% RH, 1 Month
  Osmolality: 489 mOsm/kg
[4]; 81.4 mg/mL solution, 40° C. and 75% RH, 2 Month
  Osmolality: 491 mOsm/kg
[4]; 81.4 mg/mL solution, 40° C. and 75% RH, 3 Month
  Osmolality: 492 mOsm/kg
[4]; [37]
  Osmolality: 485 mOsm/kg
[4]; 81.4 mg/mL solution, −20° C., 1 Month
  Osmolality: 489 mOsm/kg
[4]; 81.4 mg/mL solution, −20° C., 2 Month
  Osmolality: 488 mOsm/kg
[4]; 81.4 mg/mL solution, −20° C., 3 Month
  Osmolality: 486 mOsm/kg
